Reference: ChEMBL document CHEMBL5465560, “Selectivity Literature for EUbOPEN Chemogenomic Library” (2024)

Tests used:
[1] = biological target: T1, cGMP-dependent protein kinase 2 (Homo sapiens) (UniProt Q13237); details: at 10 µM
T1 sequence (whole entry): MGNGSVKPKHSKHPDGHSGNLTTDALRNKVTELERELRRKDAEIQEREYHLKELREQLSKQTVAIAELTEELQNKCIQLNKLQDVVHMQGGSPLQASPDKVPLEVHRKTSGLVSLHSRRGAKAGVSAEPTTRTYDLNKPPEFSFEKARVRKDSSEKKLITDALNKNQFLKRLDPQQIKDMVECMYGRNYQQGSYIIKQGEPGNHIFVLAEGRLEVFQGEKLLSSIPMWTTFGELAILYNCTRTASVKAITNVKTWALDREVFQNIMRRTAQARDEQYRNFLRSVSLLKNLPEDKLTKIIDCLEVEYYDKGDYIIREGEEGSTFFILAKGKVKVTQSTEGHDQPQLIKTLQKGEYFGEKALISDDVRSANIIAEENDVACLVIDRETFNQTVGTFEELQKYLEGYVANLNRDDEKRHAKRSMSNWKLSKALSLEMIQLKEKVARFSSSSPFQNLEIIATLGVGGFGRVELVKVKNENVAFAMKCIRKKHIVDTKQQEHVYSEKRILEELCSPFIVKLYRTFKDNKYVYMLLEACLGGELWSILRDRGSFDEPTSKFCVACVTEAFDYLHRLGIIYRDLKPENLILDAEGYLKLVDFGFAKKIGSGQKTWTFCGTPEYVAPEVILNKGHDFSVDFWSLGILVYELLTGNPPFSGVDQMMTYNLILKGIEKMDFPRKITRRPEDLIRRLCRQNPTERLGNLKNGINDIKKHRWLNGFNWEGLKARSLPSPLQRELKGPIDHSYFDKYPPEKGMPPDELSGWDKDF

[2] = biological target: T2, Ephrin type-A receptor 1 (Homo sapiens) (UniProt P21709); experiment: Selectivity interaction (Kinase panel (Invitrogen)) EUB0000639a EPHA1; details: at 200 nM
T2 sequence (whole entry): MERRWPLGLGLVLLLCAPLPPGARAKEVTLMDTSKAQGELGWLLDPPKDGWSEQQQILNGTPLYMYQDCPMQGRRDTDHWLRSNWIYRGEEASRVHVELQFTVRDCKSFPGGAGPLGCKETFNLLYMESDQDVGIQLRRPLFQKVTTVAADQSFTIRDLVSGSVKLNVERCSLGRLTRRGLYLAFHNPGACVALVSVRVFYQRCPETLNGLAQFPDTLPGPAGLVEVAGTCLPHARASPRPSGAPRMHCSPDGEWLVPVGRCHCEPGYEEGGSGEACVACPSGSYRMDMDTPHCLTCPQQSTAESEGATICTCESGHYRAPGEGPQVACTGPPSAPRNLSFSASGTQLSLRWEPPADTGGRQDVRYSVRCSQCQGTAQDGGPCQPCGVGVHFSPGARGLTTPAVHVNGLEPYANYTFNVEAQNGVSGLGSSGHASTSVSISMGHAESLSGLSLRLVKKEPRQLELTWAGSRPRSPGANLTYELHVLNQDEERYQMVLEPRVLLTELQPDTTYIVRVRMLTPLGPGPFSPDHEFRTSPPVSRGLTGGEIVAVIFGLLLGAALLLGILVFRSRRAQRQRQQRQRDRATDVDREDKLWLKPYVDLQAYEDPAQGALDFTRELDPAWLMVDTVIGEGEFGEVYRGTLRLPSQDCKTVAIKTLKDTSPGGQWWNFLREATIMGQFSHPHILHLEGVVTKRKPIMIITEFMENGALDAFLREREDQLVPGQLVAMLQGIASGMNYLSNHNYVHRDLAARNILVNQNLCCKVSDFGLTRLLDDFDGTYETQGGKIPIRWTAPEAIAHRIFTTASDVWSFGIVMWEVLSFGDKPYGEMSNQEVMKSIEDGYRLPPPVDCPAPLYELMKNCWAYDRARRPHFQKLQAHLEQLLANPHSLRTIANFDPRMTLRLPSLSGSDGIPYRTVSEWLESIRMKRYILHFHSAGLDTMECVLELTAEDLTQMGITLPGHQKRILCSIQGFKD

[3] = biological target: Mast/stem cell growth factor receptor Kit (Homo sapiens, UniProt P10721); experiment: Selectivity interaction (Kinase panel (Invitrogen)) EUB0000639a KIT; details: at 200 nM
Mast/stem cell growth factor receptor Kit, sequence (P10721 whole entry): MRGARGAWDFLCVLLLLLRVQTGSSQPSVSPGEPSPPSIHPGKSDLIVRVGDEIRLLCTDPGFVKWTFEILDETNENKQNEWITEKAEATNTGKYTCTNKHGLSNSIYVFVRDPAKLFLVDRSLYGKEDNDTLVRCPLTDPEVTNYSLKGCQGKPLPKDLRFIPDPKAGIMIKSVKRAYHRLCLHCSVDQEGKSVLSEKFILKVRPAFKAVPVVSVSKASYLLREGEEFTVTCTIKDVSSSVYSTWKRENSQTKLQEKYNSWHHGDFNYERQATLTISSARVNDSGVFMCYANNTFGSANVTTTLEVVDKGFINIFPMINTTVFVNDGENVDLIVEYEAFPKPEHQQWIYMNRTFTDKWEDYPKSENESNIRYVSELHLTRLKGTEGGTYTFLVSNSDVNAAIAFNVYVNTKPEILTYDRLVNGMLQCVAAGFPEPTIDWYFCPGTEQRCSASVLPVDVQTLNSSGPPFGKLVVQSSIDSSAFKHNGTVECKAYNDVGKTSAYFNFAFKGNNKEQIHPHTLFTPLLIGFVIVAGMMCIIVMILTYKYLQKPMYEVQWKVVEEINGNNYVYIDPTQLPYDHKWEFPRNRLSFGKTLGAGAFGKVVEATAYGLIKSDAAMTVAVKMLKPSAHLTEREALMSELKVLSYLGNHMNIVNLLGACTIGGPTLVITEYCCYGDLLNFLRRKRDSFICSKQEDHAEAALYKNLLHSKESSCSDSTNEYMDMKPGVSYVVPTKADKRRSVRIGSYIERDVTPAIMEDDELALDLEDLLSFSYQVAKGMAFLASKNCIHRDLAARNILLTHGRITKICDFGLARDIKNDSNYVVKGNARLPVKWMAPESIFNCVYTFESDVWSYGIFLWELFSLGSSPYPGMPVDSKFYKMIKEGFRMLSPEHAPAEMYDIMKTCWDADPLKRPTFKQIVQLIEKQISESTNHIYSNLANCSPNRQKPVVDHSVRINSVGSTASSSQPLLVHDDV

[4] = biological target: G protein-coupled receptor kinase 6 (Homo sapiens) (UniProt P43250); experiment: Selectivity interaction (SelectScreen profiling (Invitrogen)) EUB0000607a GRK6; details: at 2 µM
G protein-coupled receptor kinase 6 (Homo sapiens), sequence (P43250 whole entry, looked up): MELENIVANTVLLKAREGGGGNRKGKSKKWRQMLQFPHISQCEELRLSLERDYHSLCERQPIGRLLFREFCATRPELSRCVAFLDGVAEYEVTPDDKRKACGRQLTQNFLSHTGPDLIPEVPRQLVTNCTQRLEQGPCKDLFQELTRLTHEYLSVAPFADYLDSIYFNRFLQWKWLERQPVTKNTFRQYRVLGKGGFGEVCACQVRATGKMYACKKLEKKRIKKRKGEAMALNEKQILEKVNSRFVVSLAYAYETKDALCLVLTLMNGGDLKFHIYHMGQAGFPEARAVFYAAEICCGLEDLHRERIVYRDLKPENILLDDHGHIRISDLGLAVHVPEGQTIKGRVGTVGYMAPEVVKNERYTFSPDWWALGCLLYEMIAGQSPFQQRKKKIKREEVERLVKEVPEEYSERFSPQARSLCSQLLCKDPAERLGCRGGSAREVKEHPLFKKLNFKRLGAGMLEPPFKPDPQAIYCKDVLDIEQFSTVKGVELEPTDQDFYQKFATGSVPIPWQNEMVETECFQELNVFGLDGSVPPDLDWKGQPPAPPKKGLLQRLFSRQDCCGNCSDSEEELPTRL

[5] = biological target: Tyrosine-protein kinase receptor Tie-1 (Homo sapiens) (UniProt P35590); details: at 10 µM
Tyrosine-protein kinase receptor Tie-1 (Homo sapiens), sequence (P35590 whole entry): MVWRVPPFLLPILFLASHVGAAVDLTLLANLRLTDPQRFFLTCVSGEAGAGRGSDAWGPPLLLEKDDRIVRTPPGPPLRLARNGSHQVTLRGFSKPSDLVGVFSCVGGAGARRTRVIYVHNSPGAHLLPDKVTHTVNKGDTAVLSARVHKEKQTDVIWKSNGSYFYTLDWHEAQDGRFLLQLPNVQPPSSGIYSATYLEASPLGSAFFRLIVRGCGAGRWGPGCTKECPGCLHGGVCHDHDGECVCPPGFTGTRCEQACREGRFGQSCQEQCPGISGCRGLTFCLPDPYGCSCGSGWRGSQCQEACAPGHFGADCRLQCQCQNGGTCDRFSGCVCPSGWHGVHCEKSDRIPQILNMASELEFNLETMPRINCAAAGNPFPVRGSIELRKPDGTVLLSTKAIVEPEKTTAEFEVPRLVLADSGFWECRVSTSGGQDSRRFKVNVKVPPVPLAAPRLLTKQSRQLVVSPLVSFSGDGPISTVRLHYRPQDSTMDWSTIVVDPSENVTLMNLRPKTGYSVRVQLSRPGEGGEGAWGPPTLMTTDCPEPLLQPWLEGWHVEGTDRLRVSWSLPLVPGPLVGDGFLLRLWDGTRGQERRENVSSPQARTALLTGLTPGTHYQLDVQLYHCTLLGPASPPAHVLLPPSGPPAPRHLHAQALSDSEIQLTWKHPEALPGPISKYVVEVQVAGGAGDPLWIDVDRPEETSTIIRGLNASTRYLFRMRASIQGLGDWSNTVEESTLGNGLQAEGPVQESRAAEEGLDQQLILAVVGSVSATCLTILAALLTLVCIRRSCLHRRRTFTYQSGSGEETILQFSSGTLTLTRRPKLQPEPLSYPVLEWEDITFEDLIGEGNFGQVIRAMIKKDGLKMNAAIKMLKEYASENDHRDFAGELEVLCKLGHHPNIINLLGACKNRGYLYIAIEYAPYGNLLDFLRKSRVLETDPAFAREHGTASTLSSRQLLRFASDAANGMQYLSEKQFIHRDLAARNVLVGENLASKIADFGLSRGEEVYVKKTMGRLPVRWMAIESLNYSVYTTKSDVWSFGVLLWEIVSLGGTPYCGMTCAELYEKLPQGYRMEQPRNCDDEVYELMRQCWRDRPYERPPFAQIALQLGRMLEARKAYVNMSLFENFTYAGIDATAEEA

[6] = biological target: T3, Tyrosine-protein kinase ITK/TSK (Homo sapiens) (UniProt Q08881); experiment: Selectivity interaction (KinomeScan (DiscoverX)) EUB0000045b ITK
T3 sequence (whole entry): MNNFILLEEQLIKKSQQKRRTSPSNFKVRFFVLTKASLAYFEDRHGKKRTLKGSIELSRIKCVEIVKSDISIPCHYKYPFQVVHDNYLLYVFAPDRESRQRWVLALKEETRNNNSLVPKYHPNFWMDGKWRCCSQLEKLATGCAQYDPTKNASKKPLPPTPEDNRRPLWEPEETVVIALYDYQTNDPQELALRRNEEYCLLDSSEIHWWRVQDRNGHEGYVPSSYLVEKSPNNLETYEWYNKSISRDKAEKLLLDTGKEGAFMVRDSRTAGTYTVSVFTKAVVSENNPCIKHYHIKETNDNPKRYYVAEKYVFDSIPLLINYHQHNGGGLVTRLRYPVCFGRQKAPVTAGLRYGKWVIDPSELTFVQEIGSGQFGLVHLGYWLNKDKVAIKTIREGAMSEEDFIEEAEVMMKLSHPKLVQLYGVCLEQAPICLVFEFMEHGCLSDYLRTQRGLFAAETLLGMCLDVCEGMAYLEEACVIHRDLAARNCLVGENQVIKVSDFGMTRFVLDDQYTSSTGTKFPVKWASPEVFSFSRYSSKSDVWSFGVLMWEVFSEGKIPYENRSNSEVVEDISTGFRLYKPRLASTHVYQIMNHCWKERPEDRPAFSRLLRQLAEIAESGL

[7] = biological target: Ribosomal protein S6 kinase alpha-1 (Homo sapiens, UniProt Q15418); experiment: Selectivity interaction (KinomeScan (DiscoverX)) EUB0000045b RPS6KA1; details: at 1 µM
Ribosomal protein S6 kinase alpha-1, sequence (Q15418 whole entry): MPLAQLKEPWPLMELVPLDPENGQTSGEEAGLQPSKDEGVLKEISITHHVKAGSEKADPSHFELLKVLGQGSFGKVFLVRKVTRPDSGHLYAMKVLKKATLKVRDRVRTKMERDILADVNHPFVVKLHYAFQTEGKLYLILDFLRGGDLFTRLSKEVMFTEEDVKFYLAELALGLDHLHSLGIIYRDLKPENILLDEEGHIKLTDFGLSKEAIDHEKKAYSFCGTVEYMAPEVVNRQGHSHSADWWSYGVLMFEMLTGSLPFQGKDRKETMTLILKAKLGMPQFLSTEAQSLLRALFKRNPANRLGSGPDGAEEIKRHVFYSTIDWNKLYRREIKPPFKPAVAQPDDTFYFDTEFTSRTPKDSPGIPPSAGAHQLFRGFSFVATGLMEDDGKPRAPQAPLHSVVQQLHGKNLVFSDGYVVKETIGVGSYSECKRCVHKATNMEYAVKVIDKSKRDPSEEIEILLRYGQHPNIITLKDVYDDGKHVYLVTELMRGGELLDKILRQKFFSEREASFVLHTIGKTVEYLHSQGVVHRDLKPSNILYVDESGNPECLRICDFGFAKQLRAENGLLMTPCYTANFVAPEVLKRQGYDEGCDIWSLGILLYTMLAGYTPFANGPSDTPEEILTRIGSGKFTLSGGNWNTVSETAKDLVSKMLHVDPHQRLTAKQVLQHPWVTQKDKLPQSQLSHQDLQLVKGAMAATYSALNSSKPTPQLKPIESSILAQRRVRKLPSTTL

[8] = biological target: Protein-tyrosine kinase 2-beta (Homo sapiens) (UniProt Q14289); experiment: Selectivity interaction (ActivX KiNativ screen (ex vivo kinase selectivity in human PBMCs)) EUB0001619a PTK2B; type: cell-based; details: PBMC, at 1 µM
Protein-tyrosine kinase 2-beta (Homo sapiens), sequence (Q14289 whole entry, looked up): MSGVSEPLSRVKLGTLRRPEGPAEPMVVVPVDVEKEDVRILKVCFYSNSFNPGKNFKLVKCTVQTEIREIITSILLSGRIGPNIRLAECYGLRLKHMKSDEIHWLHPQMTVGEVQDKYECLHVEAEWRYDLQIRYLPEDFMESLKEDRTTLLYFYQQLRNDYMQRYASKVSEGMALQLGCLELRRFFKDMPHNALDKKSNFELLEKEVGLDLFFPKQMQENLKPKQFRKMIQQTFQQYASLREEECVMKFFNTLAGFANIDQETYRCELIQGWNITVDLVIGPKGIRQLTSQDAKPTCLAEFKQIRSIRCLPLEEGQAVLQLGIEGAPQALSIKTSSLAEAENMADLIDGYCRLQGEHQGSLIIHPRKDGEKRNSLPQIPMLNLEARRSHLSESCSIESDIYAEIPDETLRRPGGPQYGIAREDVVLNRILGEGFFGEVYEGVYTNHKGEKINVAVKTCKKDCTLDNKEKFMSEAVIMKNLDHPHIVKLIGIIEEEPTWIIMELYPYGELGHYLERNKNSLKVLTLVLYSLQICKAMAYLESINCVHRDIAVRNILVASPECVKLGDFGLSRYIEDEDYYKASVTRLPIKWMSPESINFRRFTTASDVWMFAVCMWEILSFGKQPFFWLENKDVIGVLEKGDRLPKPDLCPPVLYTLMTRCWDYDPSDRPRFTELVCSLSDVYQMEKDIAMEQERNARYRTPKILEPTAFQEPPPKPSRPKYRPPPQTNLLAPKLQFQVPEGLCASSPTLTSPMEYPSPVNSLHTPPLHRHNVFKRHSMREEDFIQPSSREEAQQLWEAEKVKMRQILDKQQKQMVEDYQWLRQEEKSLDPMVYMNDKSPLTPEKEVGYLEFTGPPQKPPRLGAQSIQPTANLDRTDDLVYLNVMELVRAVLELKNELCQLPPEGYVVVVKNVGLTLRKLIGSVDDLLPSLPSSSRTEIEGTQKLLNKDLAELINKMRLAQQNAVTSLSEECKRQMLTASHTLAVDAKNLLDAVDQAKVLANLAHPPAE

[9] = biological target: Ribosomal protein S6 kinase beta-2 (Homo sapiens) (UniProt Q9UBS0); experiment: Selectivity interaction (ActivX KiNativ screen (ex vivo kinase selectivity in human PBMCs)) EUB0001619a RPS6KB2; type: cell-based; details: PBMC, at 1 µM
Ribosomal protein S6 kinase beta-2 (Homo sapiens), sequence (Q9UBS0 whole entry): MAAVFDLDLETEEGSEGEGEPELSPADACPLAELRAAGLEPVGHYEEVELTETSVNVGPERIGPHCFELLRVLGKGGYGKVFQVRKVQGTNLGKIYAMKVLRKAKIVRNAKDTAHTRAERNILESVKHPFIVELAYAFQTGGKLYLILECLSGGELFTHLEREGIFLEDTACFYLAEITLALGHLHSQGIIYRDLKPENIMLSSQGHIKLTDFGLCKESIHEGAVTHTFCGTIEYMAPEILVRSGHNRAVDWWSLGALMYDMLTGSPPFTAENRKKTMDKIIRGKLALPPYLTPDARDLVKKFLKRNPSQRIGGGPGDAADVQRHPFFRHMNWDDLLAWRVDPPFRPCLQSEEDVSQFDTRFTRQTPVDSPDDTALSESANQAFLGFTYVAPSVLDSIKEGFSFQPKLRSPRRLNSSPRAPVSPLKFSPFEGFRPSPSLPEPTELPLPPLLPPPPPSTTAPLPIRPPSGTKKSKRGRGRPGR

SMILES: Cc1cc([C@@H](C)Nc2ccccc2C(=O)O)c2nc(N3CCOCC3)cc(=O)n2c1 [AZD-6482]
- % of control [1]: 98%

SMILES: CC[C@@H]1[C@H](F)C(=O)N[C@@H]1COc1nccc2cc(C(N)=O)c(OC)cc12 [ZIMLOVISERTIB]
- % of inhibition [2]: 4.58%
- % of inhibition [3]: 0.275%

SMILES: CNC(=O)Nc1ccc(-c2nc(N3CC4CCC(C3)O4)c3cnn(C4CCC5(CC4)OCCO5)c3n2)cc1
- % of inhibition [4]: -1%

SMILES: COCC(=O)NC/C=C/c1ccc2ncnc(Nc3ccc(Oc4ccc(C)nc4)c(C)c3)c2c1 [CP-724714]
- % of control [5]: 100%

SMILES: C=CC(=O)Nc1cc(-n2c(=O)ccc3cnc4ccc(-c5ccc(NS(C)(=O)=O)cc5)cc4c32)ccc1C
- % of control ([6]; at 1 µM): 52%
- % of control ([6]; at 10 µM): 43%
- % of control [7]: 91%

SMILES: N#Cc1cccc(-c2c[nH]c3ncnc(N4CCOCC4)c23)c1
- % of inhibition [8]: 3%
- % of inhibition [9]: -10%
